Paper PMC11732138, “Gold complex compounds that inhibit drug-resistant Staphylococcus aureus by targeting thioredoxin reductase” (Frontiers in Antibiotics, 2023)
≈ marks a conversion by molar mass, not a printed value. Entries after “also recorded” stand apart in the source; their conditions may differ. Like-named read-outs stand apart in the source and are kept apart here.

What was measured:
HepG2 cells = experiment: Immortalized cell line toxicity (WST-1), HepG2; type: cell-based, human; conditions: HepG2 liver cell line, 24 h
Experimental: (§1) A hepatic cell line (HepG2), lung carcinoma cell line (A549), and kidney cell line (HKC) were used to test the cytotoxicity of investigational compounds. Cells were grown in DMEM (ThermoFisher Scientific, Waltham, MA, USA) supplemented with 10% fetal bovine serum (FBS) (ThermoFisher Scientific, Waltham, MA, USA) and 1% penicillin/streptomycin (ThermoFisher Scientific, Waltham, MA, USA) and maintained at 37°C in 5% CO2. 2.5x10^4 cells in 100 μL of DMEM with 10% FBS were added to wells of 96-well plates 24 h prior to the experiments. Compounds were serially diluted in […], and 100 μL antibiotic-free DMEM was added to the monolayer and incubated at 37°C in 5% CO2 for 24 h. At 2 h before the end of the incubation period, 10 μL of 2-(4-iodophenyl)-3-(4-nitrophenyl)-5-(2, 4-disulfophenyl)-2H-tetrazolium (WST-1) solution (Roche, Mannheim, Germany) was added to each well. WST-1 reduction was monitored at 450 nm using a Vmax microplate reader. Assays were performed in triplicate, and the percentage survival was calculated by comparing the compound-treated wells to the DMSO vehicle control wells.

S. aureus TrxR = S. aureus TrxR (Staphylococcus aureus, UniProt P66011); experiment: TrxR (TrxB) enzymatic assay, DTNB to TNB conversion
Experimental: TrxR specific inhibitory activity was evaluated using 40 μL of S. aureus TrxR enzyme (0.5 μg/μL) per 200 mL of the reaction mixture for 15 minutes, comparing auranofin to other sulfur-containing compounds (all tested at 10 μg/mL), including known anti-S. aureus compounds.
For the screening assay, diluted TrxR assay buffer (Cayman Chemical, Ann Arbor, MI) (100 μL) was mixed with the investigational compounds (20 μL) in a 96 well-plate format and combined with Sa-TrxB (40 μL; 0.5 μg/mL), DTNB (20 μL) and NADPH (20 μL). The reaction entailed combining NADPH and Sa-TrxB with DTNB, which was converted to TNB, producing a yellow color.

HKC cells = experiment: Immortalized cell line toxicity (WST-1), HKC; type: cell-based, human; conditions: HKC kidney cell line, 24 h
Experimental: as §1

[1] = Immortalized cell line toxicity (WST-1), the three cell lines together; type: cell-based; conditions: human, hkc, hepg2, a549 cells, HKC, HepG2, A549; read-out: toxicity to cell lines as multiple of the MIC
Experimental: as §1

[2] = Compound solubility in PBS; type: physicochemical; conditions: aqueous buffer
Experimental: Compound solubility in PBS. Compound solubility was measured in PBS. Briefly, serial dilutions of test compounds were prepared in DMSO at 100x the final concentration. Test compound solutions were diluted 100-fold into PBS in a 96-well plate and mixed. After 2 h, the presence of precipitate was detected by measuring absorbance at 540 nm.

[3] = system: renal proximal tubule epithelial cells; experiment: Renal proximal tubule epithelial cell toxicity; type: cell-based, human
[4] = system: human primary hepatocytes; experiment: Human primary hepatocytes toxicity; type: cell-based; conditions: 24 h, WST1
Experimental: Human primary hepatocytes toxicity. Cryopreserved human primary hepatocytes were purchased from the Cell Resource Core at Massachusetts General Hospital (Boston, MA, USA). Collagen sandwiched configuration was used to culture the thawed cells in 24-well plates. The 24-well plates were coated with rat tail collagen type I (Cell Recourse Core, MGH) and incubated for an hour before 4 x 10^5 live cells were plated and incubated at 37°C with 5% CO2 for 1 h to allow cells to attach to the collagen gel. After incubation, the medium was removed along with dead cells, and the remaining cells received 0.5 mL of hepatocyte culture medium containing Dulbecco’s modified Eagle’s medium (DMEM) media supplemented with 10% FBS, 0.5 U/mL insulin, 14 ng/mL glucagon, 20 ng/mL EGF, 7.5 µg/mL hydrocortisone and 200 U/mL penicillin-streptomycin. The cell cultures were incubated in a humidified, 5% CO2 incubator at 37°C. After 24 h, a top layer of collagen gel was poured over the hepatocytes attached to collagen on the bottom of the plate, making a sandwich model. After 1 h, investigational compounds at the designated concentrations were added and incubated for 24 h. Post incubation, hepatocyte WST1 (Roche, Basel, Switzerland) was added and incubated for 4 h. Cell staining was measured by recording the absorbance at 420 nm, measured using a Vmax microplate reader (Molecular Devices, San Jose, CA, USA.), and data were plotted using GraphPad Prism. Cells were tested in triplicate.

hERG channel = hERG channel (Homo sapiens, UniProt Q12809); experiment: hERG measurement (QPatch HTX patch clamp)
Source text: QPatch HTX system (Sophion Biosciences A/S, Ballerup, Denmark) was used to examine hERG signaling (Cyprotex, Watertown, MA, USA). The system was primed with appropriate extracellular (NaCl, KCl, CaCl2, MgCl2, D-glucose, HEPES, pH 7.4) and intracellular (KCl, MgCl2, EGTA, MgATP, HEPES, pH 7.2) solutions before conducting the study in a 48 well plate (QPlate, Sophion Biosciences A/S, Ballerup, Denmark). All cell suspensions, buffers, and test compound solutions were kept at room temperature during the experiment. HEK293 cells stably transfected with hERG cDNA were washed and positioned into each well (recording chamber) of the QPlate. The QPatch system follows the general principles of conventional whole-cell patch-clamping: a high resistance seal is formed between the patch electrode, and an individual cell, the membrane across the electrode tip is then ruptured, and the whole-cell patch-clamp configuration is established. The standard voltage profile was as follows: step from -80 mV to –50 mV for 200 ms, +20 mV for 4.8 s, step to -50 mV for 5 s, then stepped to the holding potential of -80 mV. The step from -80 mV to the test command (+20 mV) results in an outward current (i.e., current flows out of the cell), and the step from the test command (+20 mV) to -50 mV results in the tail current (the tail current represents deactivation of the current overtime). Compound dilutions were prepared by diluting a DMSO solution (default 10 mM), followed by dilution into an extracellular buffer such that the final concentrations tested were 0.1, 1, and 10 μM (final DMSO concentration 0.1%). Perfusion solutions contained 0.05% Pluronic F-68 and were stored at room temperature for the duration of the experiment each day. The voltage protocol was run and recorded continuously during the experiment. Cells were treated with a vehicle for 3 min (i.e., 0.1% DMSO) followed by three increasing test substance concentrations (0.1, 1, and 10 μM). The test compounds were applied in triplicate at each concentration and tested in at least 2 cells (biological replicates). […]

S. aureus MW2 [5] = experiment: Time to kill assay; type: cell-based, Staphylococcus aureus; conditions: 4 × MIC, 4 h; bactericidal = 3-log10-CFU/mL reduction
Experimental: S. aureus MW2, a methicillin-resistant S. aureus (MRSA) isolate, was used to determine the bacteriostatic/bactericidal properties of test compounds, as previously described ([Rajamuthiah et al., 2015]). Assays were carried out as 2 biological replicates with n=3 for each in 24 well plates (BD Biosciences, Franklin Lakes, NJ, USA). Briefly, S. aureus MW2 cells were streaked on TSB agar from a frozen glycerol stock, and after overnight incubation, a single colony was inoculated on 2 mL of TSB and incubated at 37°C with agitation. The overnight culture of S. aureus MW2 was centrifuged at 4000 g for 5 min and then washed twice with PBS and collected through centrifuged at 4000 g for 5 min. The PBS was discarded and cells were suspended in TSB and aliquoted into a 24-well plate at a density of 10^8 cells/mL as a 1 mL volume. Test compounds were added such that the final concentration was 4 × MIC, and the cultures were incubated at 37°C with agitation. At designated time intervals, 5 μL aliquots from each test condition were serially diluted in TSB and plated onto TSA (BD Biosciences, Franklin Lakes, NJ, USA). CFUs were enumerated after overnight incubation at 35°C, and data were plotted using GraphPad Prism 9.0 (San Diego, CA, USA) to report the means and standard deviation of growth as measured by CFU/mL.

A549 cells = experiment: Immortalized cell line toxicity (WST-1), A549; type: cell-based, human; conditions: A549 lung carcinoma cell line, 24 h
Experimental: as §1

[6] = Compound solubility in DMSO; type: physicochemical; conditions: organic solvent or mixture, turbidity at 540 nm, read-out: concentration at which reduced solubility began in DMSO
Experimental: To test compound solubility, stock solutions were made in triplicate at 50 mg/mL in DMSO. Two-fold serial dilutions of the test compounds were prepared at 50 μL volume in a 96-well assay plate and were kept in the incubator for 1 h. After incubation, the absorbance was measured at 540 nm using a Vmax microplate reader (Molecular Devices, Sunnyvale, CA, USA.) to detect turbidity.

[7] = system: clinical isolates of S. aureus; experiment: MIC against clinical isolates of S. aureus; type: cell-based; conditions: Staphylococcus aureus
Experimental: Broth microdilution assays were carried out with 2 biological replicates, each in triplicate, Mueller–Hinton broth (MHB; BD Biosciences, Franklin Lakes, NJ, USA) with a total assay volume of 100 μL in 96-well plates (BD Biosciences, Franklin Lakes, NJ, USA). […] The initial bacterial inoculum was adjusted to OD600 0.06, 50 μL was, added to the test compounds, and then incubated at 35°C for 18 h. Post incubation, OD600 was measured using a Vmax microplate reader (Molecular Devices, San Jose, CA), and the lowest concentration of test compound that suppressed bacterial growth was reported as the MIC.
Isolates were tested as 2 biological replicates.

P. aeruginosa PA14 = experiment: Broth microdilution MIC, P. aeruginosa; type: cell-based, Pseudomonas aeruginosa; conditions: Pseudomonas aeruginosa, PA14
Experimental: (§2) In vitro antibiotic susceptibilities were determined using the broth microdilution assay established by the Clinical and Laboratory Standards Institute ([Clinical and Laboratory Standards Institute, 2012]). Broth microdilution assays were carried out with 2 biological replicates, each in triplicate, Mueller–Hinton broth (MHB; BD Biosciences, Franklin Lakes, NJ, USA) with a total assay volume of 100 μL in 96-well plates (BD Biosciences, Franklin Lakes, NJ, USA). Two-fold serial dilutions of compounds were prepared at a range of 0.01– 64 μg/mL in 50 μL of MHB. The initial bacterial inoculum was adjusted to OD600 0.06, 50 μL was, added to the test compounds, and then incubated at 35°C for 18 h. Post incubation, OD600 was measured using a Vmax microplate reader (Molecular Devices, San Jose, CA), and the lowest concentration of test compound that suppressed bacterial growth was reported as the MIC. Broth culture from the MIC assay (10 μL) was plated on Mueller–Hinton agar (BD Biosciences, Franklin Lakes, NJ, USA), and colony-forming units (CFUs) were enumerated after overnight incubation at 37°C.

Enterobacter (EAE 2625) = experiment: Broth microdilution MIC, Enterobacter; type: cell-based, Enterobacter spp.; conditions: Enterobacter
Experimental: as §2

[8] = system: S. aureus MW2 biofilm formation; experiment: Biofilm formation inhibition; type: cell-based, Staphylococcus aureus; conditions: 24 h, Alamar Blue
Experimental: (§3) Diluted bacterial cells were added to 100 μL of test compounds (serially diluted 16 to 0 μg/mL) and incubated for 24 h to assess the biofilm formation inhibition. For the disruption of matured biofilm, diluted cells in 100 μL were added to the 96-well plate and incubated for 24 h with no agitation. […] Biofilm assays were completed in triplicate.

E. faecium ATCC E007 = experiment: Broth microdilution MIC, E. faecium; type: cell-based, Enterococcus faecium; conditions: Enterococcus faecium, ATCCE007
Experimental: as §2

S. aureus MW2 [9] = experiment: Broth microdilution MIC, S. aureus MW2; type: cell-based, Staphylococcus aureus; conditions: Staphylococcus aureus, MRSA, 18 h
Experimental: as §2

K. pneumoniae ATCC 77326 = experiment: Broth microdilution MIC, K. pneumoniae; type: cell-based, Klebsiella pneumonia; conditions: Klebsiella pneumoniae, ATCC77326
Experimental: as §2

H. pylori 49503 = experiment: Broth microdilution MIC, H. pylori; type: cell-based, Helicobacter pylori; conditions: Helicobacter pylori, 49503
Experimental: as §2

mature S. aureus biofilm = experiment: Disruption of mature biofilm; type: cell-based, Staphylococcus aureus; conditions: preformed 24 h biofilm, Alamar Blue
Experimental: as §3

A. baumannii 17978 = experiment: Broth microdilution MIC, A. baumannii; type: cell-based, Acinetobacter baumannii; conditions: Acinetobacter baumannii, 17978
Experimental: as §2

Chain of hERG channel (Q12809 whole entry): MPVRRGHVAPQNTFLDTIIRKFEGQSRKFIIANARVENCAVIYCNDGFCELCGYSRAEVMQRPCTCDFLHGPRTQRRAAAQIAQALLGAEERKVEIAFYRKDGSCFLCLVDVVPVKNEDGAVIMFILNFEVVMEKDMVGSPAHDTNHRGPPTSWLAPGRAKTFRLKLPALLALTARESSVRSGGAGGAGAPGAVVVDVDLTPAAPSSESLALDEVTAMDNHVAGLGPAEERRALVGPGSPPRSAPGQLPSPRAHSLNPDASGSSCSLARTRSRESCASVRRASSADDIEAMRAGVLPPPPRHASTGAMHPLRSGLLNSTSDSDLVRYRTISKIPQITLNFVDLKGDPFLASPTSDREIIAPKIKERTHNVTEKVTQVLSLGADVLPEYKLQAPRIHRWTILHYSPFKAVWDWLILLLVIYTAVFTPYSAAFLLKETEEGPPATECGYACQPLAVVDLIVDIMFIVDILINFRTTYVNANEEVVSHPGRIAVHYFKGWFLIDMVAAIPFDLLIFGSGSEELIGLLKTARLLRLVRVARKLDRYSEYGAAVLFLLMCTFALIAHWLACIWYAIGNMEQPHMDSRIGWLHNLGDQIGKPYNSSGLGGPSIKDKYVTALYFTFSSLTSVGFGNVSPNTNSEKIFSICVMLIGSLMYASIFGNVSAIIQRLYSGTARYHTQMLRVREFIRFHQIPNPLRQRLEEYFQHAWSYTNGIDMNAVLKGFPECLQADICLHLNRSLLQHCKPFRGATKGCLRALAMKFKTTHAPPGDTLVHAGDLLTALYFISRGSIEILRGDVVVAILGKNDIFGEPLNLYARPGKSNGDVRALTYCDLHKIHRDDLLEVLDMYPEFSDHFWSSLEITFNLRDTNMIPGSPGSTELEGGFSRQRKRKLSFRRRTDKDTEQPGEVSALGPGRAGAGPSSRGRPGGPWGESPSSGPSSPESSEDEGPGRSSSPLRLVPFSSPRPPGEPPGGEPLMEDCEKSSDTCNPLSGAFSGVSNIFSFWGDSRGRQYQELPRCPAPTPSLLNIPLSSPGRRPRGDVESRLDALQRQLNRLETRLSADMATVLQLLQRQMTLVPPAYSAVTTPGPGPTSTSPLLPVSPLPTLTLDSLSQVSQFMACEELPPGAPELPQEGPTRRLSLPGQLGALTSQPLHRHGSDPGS
Chain of S. aureus TrxR (P66011 whole entry): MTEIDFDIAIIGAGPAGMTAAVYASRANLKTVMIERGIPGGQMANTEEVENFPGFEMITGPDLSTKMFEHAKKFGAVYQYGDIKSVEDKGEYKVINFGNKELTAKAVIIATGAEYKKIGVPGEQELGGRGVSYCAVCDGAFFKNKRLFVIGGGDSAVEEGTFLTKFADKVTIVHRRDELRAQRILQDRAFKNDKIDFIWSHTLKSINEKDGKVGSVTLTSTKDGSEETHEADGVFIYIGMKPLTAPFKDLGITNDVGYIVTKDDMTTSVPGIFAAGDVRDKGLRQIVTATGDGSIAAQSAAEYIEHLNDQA

For CC(C)(C)c1ccc(S(=O)[O-])cc1.[Au+].c1ccc(P(c2ccccc2)c2ccccc2)cc1 [AU5], the LD50 (HepG2 cells) was “approximately 4 μg/mL”, the IC50 (S. aureus TrxR) was 1830 nM and the LD50 (HKC cells) was “approximately 4 μg/mL”. For the same molecule, the selectivity ratio at 24 h [1] was 16, the solubility at 2 h ([2]; PBS, 2 Hour, highest concentration with no detectable precipitate, read-out: Solubility Limit) was 3.13 µM and the solubility at 2 h ([2]; pbs, read-out: Solubility in PBS converted to mass concentration) was 2.03 µg/mL. For the same molecule, the LD50 ([3]; renal proximal tubule epithelial cells) was 2 µg/mL, the LD50 [4] was roughly 6 µg/mL and the IC50 (hERG channel) was 3160 nM. For the same molecule, the “bactericidal versus bacteriostatic nature (time-to-kill kinetics)” value (S. aureus MW2 [5]) was “bactericidal; also recorded: bacteriocidal”, the LD50 (A549 cells) was “approximately 4 μg/mL” and the solubility at 1 h [6] was 6.5 µg/mL.

For CN[C@H](CC(C)C)C(=O)N[C@H]1C(=O)N[C@@H](CC(N)=O)C(=O)N[C@H]2C(=O)N[C@H]3C(=O)N[C@H](C(=O)N[C@H](C(=O)O)c4cc(O)cc(O)c4-c4cc3ccc4O)[C@H](O)c3ccc(c(Cl)c3)Oc3cc2cc(c3O[C@@H]2O[C@H](CO)[C@@H](O)[C@H](O)[C@H]2O[C@H]2C[C@](C)(N)[C@H](O)[C@H](C)O2)Oc2ccc(cc2Cl)[C@H]1O [Vancomycin], the MIC ([7]; isolate BFSA12) was 1 µg/mL (≈ 0.69 µM), the MIC ([7]; isolate BFSA13) was 1 µg/mL (≈ 0.69 µM) and the MIC ([7]; isolate BFSA15) was 1 µg/mL (≈ 0.69 µM). The MIC ([7]; isolate BFSA16) was 1 µg/mL (≈ 0.69 µM), the MIC ([7]; isolate BFSA17) was 1 µg/mL (≈ 0.69 µM) and the MIC ([7]; isolate BFSA18) was 2 µg/mL (≈ 1.38 µM). It also gave an MIC ([7]; isolate BFSA19) of 1 µg/mL (≈ 0.69 µM), an MIC ([7]; isolate BFSA20) of 1 µg/mL (≈ 0.69 µM) and an MIC ([7]; isolate BFSA21) of 2 µg/mL (≈ 1.38 µM). For the same molecule, the MIC ([7]; isolate BFSA22) was 2 µg/mL (≈ 1.38 µM), the MIC ([7]; isolate BFSA24) was 1 µg/mL (≈ 0.69 µM) and the MIC ([7]; isolate BFSA26) was 2 µg/mL (≈ 1.38 µM). It also gave an MIC ([7]; isolate BFSA29) of 1 µg/mL (≈ 0.69 µM), an MIC ([7]; isolate BFSA30) of 1 µg/mL (≈ 0.69 µM) and an MIC ([7]; isolate BFSA31) of 2 µg/mL (≈ 1.38 µM). For the same molecule, the MIC ([7]; isolate BFSA32) was 2 µg/mL (≈ 1.38 µM), the MIC ([7]; isolate BFSA33) was 2 µg/mL (≈ 1.38 µM) and the MIC ([7]; isolate BFSA34) was 1 µg/mL (≈ 0.69 µM). The MIC ([7]; isolate BFSA35) was 1 µg/mL (≈ 0.69 µM), the MIC ([7]; isolate BFSA36) was 2 µg/mL (≈ 1.38 µM) and the MIC ([7]; isolate BFSA37) was 1 µg/mL (≈ 0.69 µM). For the same molecule, the MIC ([7]; isolate BFSA38) was 1 µg/mL (≈ 0.69 µM), the MIC ([7]; isolate BFSA39) was 1 µg/mL (≈ 0.69 µM) and the MIC ([7]; isolate BFSA148) was 1 µg/mL (≈ 0.69 µM). The MIC ([7]; isolate BFSA149) was 2 µg/mL (≈ 1.38 µM), the MIC ([7]; isolate BFSA150) was 1 µg/mL (≈ 0.69 µM) and the MIC ([7]; isolate BFSA151) was 1 µg/mL (≈ 0.69 µM). The MIC ([7]; isolate BFSA152) was 2 µg/mL (≈ 1.38 µM), the MIC ([7]; isolate BFSA153) was 2 µg/mL (≈ 1.38 µM) and the MIC ([7]; isolate BFSA155) was 1 µg/mL (≈ 0.69 µM). For the same molecule, the MIC (P. aeruginosa PA14) was greater than 64 µg/mL, the MIC (Enterobacter (EAE 2625)) was greater than 64 µg/mL and the “concentration that inhibited biofilm formation (P<0.01)” value [8] was 1 µg/mL. For the same molecule, the MIC (E. faecium ATCC E007) was 1 µg/mL (≈ 0.69 µM), the MIC (S. aureus MW2 [9]) was 1 µg/mL (≈ 0.69 µM) and the “impact on renal proximal tubule epithelial cells (in words)” value ([3]; at the tested concentrations) was “did not impact”. For the same molecule, the MIC (K. pneumoniae ATCC 77326) was greater than 64 µg/mL, the MIC (H. pylori 49503) was greater than 64 µg/mL and the “concentration that significantly reduced mature biofilm” value (mature S. aureus biofilm) was 2 µg/mL. It also gave an MIC (A. baumannii 17978) greater than 64 µg/mL.
